In US20070274928A1, “Novel Cyclic Oxygenated Compounds Having Cooling, Fragrance, and Flavor Properties, and Uses Thereof” (priority 2003, published 2007):
“Also recorded” adds a separate entry of the source.

Assays:
Type in all cases: in vivo, human
[1] = Organoleptic evaluation of cooling sensory effect of purified compounds; conditions: pure / purified compound
nasal cavity = test: Olfactory evaluation of neat sample, cooling sensory effect on smelling
Procedure: 10 ml of 20% NaOH in water were added to the 1 ml of ethanolic solution of 120 mg of the oil resulting from the Grignard reaction, and the whole was stirred at room temperature for 1 hour.
An analytically pure sample of a lactone having formula (129) was obtained by subjecting 30 mg of the fraction 2A sample to column chromatography on silica gel using hexane:ethyl acetate 8:1 as an eluent.

mouth = test: Taste evaluation of aqueous solutions by mouth rinse (cooling sensory effect); conditions: 5 ppm solution in purified water, 10 ml rinsed in mouth for 10 sec
Procedure: A 5 ppm solution of 98% pure ketone (10) in purified water was prepared. 10 ml of the solution was tasted by rinsing it in the mouth for 10 sec.
A series of solutions of a mixture of compounds (7) and (8) (approximately 60:40 ratio) were prepared in purified water for subsequent evaluation of cooling sensory effects and taste properties at different concentrations. The solutions were tasted by taking 10 ml of each sample in the mouth, rinsing the mouth for 30 seconds, and discarding the solution by spitting. The cooling sensory effects were recorded as extreme (5), strong (4), moderate (3), weak (2), or none (1), and the ranks were noted over a period of time of 4 hours. Only one sample was tasted per day. All samples were kept in a refrigerator until the taste evaluation and were brought to room temperature before tasting.

tongue = test: Application of 5% solution to the tongue; conditions: 0.1 ml of a 5% solution applied to the tongue
Procedure: 3.66 grams of compound (5), 10 ml of water, 5 ml of ethanol, and 1.70 g of sodium bicarbonate were stirred together at room temperature until evolution of carbon dioxide ceased (approximately 30 min). The whole was evaporated under reduced pressure at 85° C. until a constant weight was reached. The resulting transparent solid (4.4 g) was sodium ketocampholenate monohydrate.

| Compound | cooling sensory effect [1] | further results |
| --- | --- | --- |
| CC1(C)CC2C(=O)CC(C)(O1)C2(C)C (stereo not drawn) [(147)] | no significant cooling sensory effect |  |
| CC1CC2(C)OC(=O)CC2C1(C)C (stereo not drawn) [(129)] |  | cooling sensory effect upon smelling the sample (nasal cavity): did not exhibit any significant ability to impart the cooling sensation |
| CC1CC(=O)C(CC(C)(C)O)C1(C)C (stereo not drawn) [compound (16)] | weak cooling sensory effect |  |
| CC1=CC(=O)C(CC(C)(C)O)C1(C)C (stereo not drawn) [compound (8)] | relatively weak cooling effect |  |
| CC1CCC(C(C)CO)C(=O)C1 (stereo not drawn) [(52)] | potent cooling properties |  |
| CC1CC2(O)OC(C)(C)CC2C1(C)C (stereo not drawn) [compound (15)] | moderate to strong cooling sensory effect |  |
| CC(C)=CC1C(=O)C=C(C)C1(C)C (stereo not drawn) [(10)] | completely devoid of a cooling sensory effect | cooling sensory effect (mouth): no discernible cooling sensory effect |
| CC1=CC2(O)OC(C)(C)CC2C1(C)C (stereo not drawn) [compound (7)] | powerful cooling effect; also recorded: very powerful cooling sensory effect |  |
| CC1=C[C@]2(C)OC(=O)CC2C1(C)C (stereo partly drawn) [compound (6)] | lacks the cooling sensory effect |  |
| sodium ketocampholenate monohydrate |  | duration of tingling-tangy sensation (tongue): about 10 min |
| CC1=CC2(C)OC(C)(C)CC2C1(C)C (stereo not drawn) [compound (11)] | devoid of cooling sensory properties |  |
